Our source for the EC50 values is patent US11597702B2, “Substituted pyrazoles FFA4/GPR120 receptor agonists” (AXXAM S.P.A., priority 2018, dated 2023).

This experiment concerns the target T1, GPR120 (Homo sapiens, UniProt Q5NUL3).
T1 construct: expressed in transfected cells; host or cells: CHO mitoPhotinaGPR120 cells
T1 sequence (Q5NUL3 1-361): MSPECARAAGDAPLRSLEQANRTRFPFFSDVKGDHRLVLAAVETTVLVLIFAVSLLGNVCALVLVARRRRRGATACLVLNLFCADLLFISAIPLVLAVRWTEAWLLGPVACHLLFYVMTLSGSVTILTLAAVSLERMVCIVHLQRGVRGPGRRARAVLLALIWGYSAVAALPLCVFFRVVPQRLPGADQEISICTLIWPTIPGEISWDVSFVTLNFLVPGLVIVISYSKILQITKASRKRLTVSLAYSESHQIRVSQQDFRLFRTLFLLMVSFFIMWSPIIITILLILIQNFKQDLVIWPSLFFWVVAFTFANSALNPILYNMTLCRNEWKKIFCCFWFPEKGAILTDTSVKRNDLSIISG
In words: GPR120 agonism in CHO mitoPhotinaGPR120 cell based assay with fluorescent (Fluo-8 calcium, FLIPRTetra) readout, Agonist Mode, dose response. As to conditions: CHO mitoPhotinaGPR120 cells, Fluo-8 No Wash Ca2+ dye, dose response in quadruplicate, 0.0033% fatty acid free BSA. The protocol: Compounds of the invention were tested for GPR120 agonism in a CHO mitoPhotinaGPR120 cell based assay with fluorescent readout in Agonist Mode in dose response in quadruplicate with intra-plate modality.
Twenty (20) h after seeding, growth medium was manually removed and cells were starved in the presence of 25 μL/w of Standard Tyrode's Buffer. After 3 h, cells were loaded with 20 μL/w of 0.5× Fluo-8 No Wash (AAT Bioquest, Inc.) Ca2+ sensitive dye prepared in Standard Tyrode's Buffer. Cells were incubated for 1 h at room temperature in the dark. Ten (10) μL/w 3× of controls and compounds were diluted in Standard Tyrode's Buffer+0.01% fatty acid free BSA (final concentration=0.0033%) and injected at the FLIPRTetra®, recording the kinetic calcium traces for 3 minutes. Standard Tyrode's buffer composition: 5 mM KCl, 130 mM NaCl, 2 mM CaCl2), 5 mM NaHCO3, 1 mM MgCl2, 20 mM HEPES, pH7.4.
Regarding `Cc1nn(-c2ccccc2)c(COc2ccc(F)nc2F)c1C#N` [Example 71, 5-[(2,6-difluoro-3-pyridyl)oxymethyl]-3-methyl-1-phenyl-pyrazole-4-carbonitrile], the EC50 was 5.69 µM.

Regarding `Cc1cccc(-n2nc(C)c(C#N)c2COc2ccc(CCO)cc2)c1` [Example 73, 5-[[4-(2-hydroxyethyl)phenoxy]methyl]-3-methyl-1-(m-tolyl)pyrazole-4-carbonitrile], the half-maximal effective concentration (EC50) amounted to 1.98 µM. Turning to `Cc1ccc(-n2nc(C)c(C#N)c2COc2ccc(CCO)cc2)cc1` [Example 74, 5-[[4-(2-hydroxyethyl)phenoxy]methyl]-3-methyl-1-(p-tolyl)pyrazole-4-carbonitrile], the EC50 was found to be 0.49 µM. Next, `Cc1nn(-c2cccc(Cl)c2)c(COc2ccc(CCO)cc2)c1C#N` [Example 75, 1-(3-chlorophenyl)-5-[[4-(2-hydroxyethyl)phenoxy]methyl]-3-methyl-pyrazole-4-carbonitrile]: 4.61 µM; `Cc1nn(-c2ccc(Cl)cc2)c(COc2ccc(CCO)cc2)c1C#N` [Example 76, 1-(4-chlorophenyl)-5-[[4-(2-hydroxyethyl)phenoxy]methyl]-3-methyl-pyrazole-4-carbonitrile]: 0.76 µM. For `Cc1nn(-c2cccc(C(F)(F)F)c2)c(COc2ccc(CCO)cc2)c1C#N` [Example 77, 5-[[4-(2-hydroxyethyl)phenoxy]methyl]-3-methyl-1-[3-(trifluoromethyl)phenyl]pyrazole-4-carbonitrile] the value was 9.03 µM; for `CCc1ccc(-n2nc(C)c(C#N)c2COc2ccc(CCO)cc2)cc1` [Example 78, 1-(4-ethylphenyl)-5-[[4-(2-hydroxyethyl)phenoxy]methyl]-3-methyl-pyrazole-4-carbonitrile], 0.38 µM; for `COc1cccc(-n2nc(C)c(C#N)c2COc2ccc(CCO)cc2)c1` [Example 79, 5-[[4-(2-hydroxyethyl)phenoxy]methyl]-1-(3-methoxyphenyl)-3-methyl-pyrazole-4-carbonitrile], 1.64 µM.

For `COc1ccc(-n2nc(C)c(C#N)c2COc2ccc(CCO)cc2)cc1` [Example 80, 5-[[4-(2-hydroxyethyl)phenoxy]methyl]-1-(4-methoxyphenyl)-3-methyl-pyrazole-4-carbonitrile], the half-maximal effective concentration (EC50) was 0.64 µM. On to `Cc1nn(-c2ccccc2F)c(COc2ccc(CCO)cc2)c1C#N` [Example 82, 1-(2-fluorophenyl)-5-[[4-(2-hydroxyethyl)phenoxy]methyl]-3-methyl-pyrazole-4-carbonitrile], for which the EC50 amounted to 3.41 µM. For the compound `Cc1nn(-c2ccc(F)cc2)c(COc2ccccc2)c1C#N` [Example 83, 1-(4-fluorophenyl)-3-methyl-5-(phenoxymethyl)pyrazole-4-carbonitrile], the EC50 was 2.22 µM.

Take `Cc1nn(-c2ccc(F)cc2)c(COc2ccc(CCO)cc2)c1C#N` [Example 84, 1-(4-fluorophenyl)-5-[[4-(2-hydroxyethyl)phenoxy]methyl]-3-methyl-pyrazole-4-carbonitrile]: the EC50 is 1.54 µM. Next, `Cc1nn(-c2ccc(F)cc2)c(COc2cccc(F)c2)c1C#N` [Example 85, 5-[(3-fluorophenoxy)methyl]-1-(4-fluorophenyl)-3-methyl-pyrazole-4-carbonitrile]: 4.55 µM. For `Cc1ccccc1OCc1c(C#N)c(C)nn1-c1ccc(F)cc1` [Example 86, 1-(4-fluorophenyl)-3-methyl-5-[(2-methylphenoxy)methyl]pyrazole-4-carbonitrile] the value was 1.58 µM. As to `Cc1nn(-c2ccc(F)cc2)c(COc2ccc(CCCO)cc2)c1C#N` [Example 87, 1-(4-fluorophenyl)-5-[[4-(3-hydroxypropyl)phenoxy]methyl]-3-methyl-pyrazole-4-carbonitrile], the EC50 was 0.18 µM. As for `Cc1nn(Cc2ccccc2)c(COc2ccc(CCO)cc2)c1C#N` [Example 88, 1-benzyl-5-[[4-(2-hydroxyethyl)phenoxy]methyl]-3-methyl-pyrazole-4-carbonitrile], the EC50 was 11.2 µM. On to `Cc1nn(Cc2ccccc2)c(COc2ccc(CCCO)cc2)c1C#N` [Example 89, 1-benzyl-5-[[4-(3-hydroxypropyl)phenoxy]methyl]-3-methyl-pyrazole-4-carbonitrile], for which the EC50 was found to be 0.99 µM.

With `Cc1nn(Cc2ccccc2)c(COc2c(F)cc(CCCO)cc2F)c1C#N` [Example 90, 1-benzyl-5-[[2,6-difluoro-4-(3-hydroxypropyl)phenoxy]methyl]-3-methyl-pyrazole-4-carbonitrile], the EC50 was 0.31 µM. As for `COc1ccc(Cn2nc(C)c(C#N)c2COc2ccc(CCO)cc2)cc1` [Example 91, 5-[[4-(2-hydroxyethyl)phenoxy]methyl]-1-[(4-methoxyphenyl)methyl]-3-methyl-pyrazole-4-carbonitrile], the EC50 was determined as 16.5 µM. `Cc1nn(-c2ccccc2)c(C(C)Oc2ccc(CCO)cc2)c1C#N` (centres unmarked) [Example 92, 5-[1-[4-(2-hydroxyethyl)phenoxy]ethyl]-3-methyl-1-phenyl-pyrazole-4-carbonitrile]: the EC50 was 3.66 µM. For the compound `Cc1nn(-c2ccccc2)c(C(C)Oc2c(F)cc(CCCO)cc2F)c1C#N` (centres unmarked) [Example 93, 5-[1-[2,6-difluoro-4-(3-hydroxypropyl)phenoxy]ethyl]-3-methyl-1-phenyl-pyrazole-4-carbonitrile], the EC50 stood at 0.33 µM.

Consider `Cc1nn(-c2ccccc2)c(C(F)(F)Oc2ccc(CCO)cc2)c1C#N` [Example 94, 5-[difluoro-[4-(2-hydroxyethyl)phenoxy]methyl]-3-methyl-1-phenyl-pyrazole-4-carbonitrile], for which the EC50 amounted to 1.35 µM. `Cc1nn(-c2ccccc2)c(C(F)(F)Oc2ccc(CCCO)cc2)c1C#N` [Example 95, 5-[difluoro-[4-(3-hydroxypropyl)phenoxy]methyl]-3-methyl-1-phenyl-pyrazole-4-carbonitrile]: the EC50 turned out to be 0.83 µM. On to `Cc1nn(-c2ccccc2)c(C(F)(F)Oc2c(F)cc(CCCO)cc2F)c1C#N` [Example 96, 5-[[2,6-difluoro-4-(3-hydroxypropyl)phenoxy]-difluoro-methyl]-3-methyl-1-phenyl-pyrazole-4-carbonitrile], for which the EC50 worked out at 0.52 µM.

For the compound `Cc1nn(-c2ccccc2)c(COCc2ccc(C#N)cc2)c1C#N` [Example 97, 5-[(4-cyanophenyl)methoxymethyl]-3-methyl-1-phenyl-pyrazole-4-carbonitrile], the EC50 turned out to be 2.8 µM. In the case of `Cc1nn(-c2ccc(F)cc2)c(COCc2ccccc2)c1C#N` [Example 98, 5-(benzyloxymethyl)-1-(4-fluorophenyl)-3-methyl-pyrazole-4-carbonitrile], the EC50 came to 9.9 µM. Regarding `Cc1nn(-c2cccc(F)c2)c(COc2ccc(CCO)cc2)c1C#N` [Example 101, 1-(3-fluorophenyl)-5-[[4-(2-hydroxyethyl)phenoxy]methyl]-3-methyl-pyrazole-4-carbonitrile], the EC50 was found to be 1.48 µM. On to `Cc1nn(-c2ccccn2)c(COc2ccc(CCO)cc2)c1C#N` [Example 102, 5-[[4-(2-hydroxyethyl)phenoxy]methyl]-3-methyl-1-(2-pyridyl)pyrazole-4-carbonitrile], for which the EC50 was found to be 0.53 µM. For `Cc1nn(-c2cccnc2)c(COc2ccc(CCO)cc2)c1C#N` [Example 103, 5-[[4-(2-hydroxyethyl)phenoxy]methyl]-3-methyl-1-(3-pyridyl)pyrazole-4-carbonitrile] the value was 9.22 µM; for `Cc1nn(-c2ccncc2)c(COc2ccc(CCO)cc2)c1C#N` [Example 104, 5-[[4-(2-hydroxyethyl)phenoxy]methyl]-3-methyl-1-(4-pyridyl)pyrazole-4-carbonitrile], 10.4 µM; for `Cc1nn(-c2ncccn2)c(COc2ccc(CCO)cc2)c1C#N` [Example 105, 5-[[4-(2-hydroxyethyl)phenoxy]methyl]-3-methyl-1-pyrimidin-2-yl-pyrazole-4-carbonitrile], 12.6 µM. For the compound `Cc1nn(-c2cccnn2)c(COc2ccc(CCO)cc2)c1C#N` [Example 106, 5-[[4-(2-hydroxyethyl)phenoxy]methyl]-3-methyl-1-pyridazin-3-yl-pyrazole-4-carbonitrile], the EC50 amounted to 2.49 µM.

As for `Cc1nn(-c2ccc(C#N)cc2)c(COc2ccc(CCO)cc2)c1C#N` [Example 107, 1-(4-cyanophenyl)-5-[[4-(2-hydroxyethyl)phenoxy]methyl]-3-methyl-pyrazole-4-carbonitrile], the EC50 is 8.15 µM. As for `Cc1nn(-c2ccc(C(F)(F)F)cc2)c(COc2ccc(CCO)cc2)c1C#N` [Example 109, 5-[[4-(2-hydroxyethyl)phenoxy]methyl]-3-methyl-1-[4-(trifluoromethyl)phenyl]pyrazole-4-carbonitrile], the EC50 was 3.22 µM.

On to `Cc1nn(-c2c(F)cccc2F)c(COc2ccc(CCO)cc2)c1C#N` [Example 112, 1-(2,6-difluorophenyl)-5-[[4-(2-hydroxyethyl)phenoxy]methyl]-3-methyl-pyrazole-4-carbonitrile], for which the EC50 amounted to 10.2 µM.

Usually EC50 stands for the concentration that produces a half-maximal response.
